# Measured values from patent US20140314882A1, “Synergistic Combination Therapy” (President and Fellows of Harvard College, priority 2009, published 2014).
# Tested on: S. cerevisiae cells (strain BY4741)
# Assay: concentration matrix drug synergy test on S. cerevisiae growth (OD595 growth curves)
row,Structure (SMILES),effect on yeast growth
1,C=CC[C@@H]1/C=C(\C)C[C@H](C)C[C@H](OC)[C@H]2O[C@@](O)(C(=O)C(=O)N3CCCC[C@H]3C(=O)O[C@H](/C(C)=C/[C@@H]3CC[C@@H](O)[C@H](OC)C3)[C@H](C)[C@@H](O)CC1=O)[C@H](C)C[C@@H]2OC [tacrolimus],only mildly reduced yeast growth
2,C/C1=C/C(=O)O[C@@H]2C[C@@H](CC[C@H](C)/C=C\CC1)O[C@@](O)([C@@H]1CSC(=O)N1)C2 [latrunculin B],only mildly reduced yeast growth
